Results: patent US20050090529A1, “3,5 Disubstituted indazole compounds with nitrogen-bearing 5-membered heterocycles, pharmaceutical compositions, and methods for mediating or inhibiting cell proliferation” (PFIZER INC, priority 2003, published 2005)

System: Cyclin-dependent kinase
Test: Cyclin-dependent kinase inhibition, % inhibition at 10 nM (library Examples 99-270)
Assay type: biochemical
Settings: 10 nM compound
In short: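 Enzyme starts the reaction at 30° C, which runs 20 min with 25 μM [³²P/³³P]ATP and protein substrate (pH 7.4, 10 mM MgCl2, 2% DMSO). After EDTA quench, membrane-bound labelled substrate is read by phosphorimaging following acid washes.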

SMILES | % Inhib @ 10 nM [%]
CCNCc1cncc(-c2ccc3[nH]nc(-c4ncc(C(=O)NC/C=C(\C)CCC=C(C)C)[nH]4)c3c2)c1C [Example 157] | 28
CCNCc1cncc(-c2ccc3[nH]nc(-c4ncc(C(=O)N5CCCN(C(C)=O)CC5)[nH]4)c3c2)c1C [Example 179, {[5-(3-(5-[(4-acetyl-1,4-diazepan-1-yl)carbonyl]-1H-imidazol-2-yl]-1H-indazol-5-yl)-4-methylpyridin-3-yl]methyl}ethylamine] | 53
CCNCc1cncc(-c2ccc3[nH]nc(-c4ncc(C(=O)N5CCC6CCCCC6C5)[nH]4)c3c2)c1C (stereo not shown) [Example 149, ethyl[(4-methyl-5-{3-[5-(octahydroisoquinolin-2(1H)-ylcarbonyl)-1H-imidazol-2-yl]-1H-indazol-5-yl}pyridin-3-yl)methyl]amine] | 69
CCNCc1cncc(-c2ccc3[nH]nc(-c4ncc(C(=O)N[C@H]5CCc6ccccc65)[nH]4)c3c2)c1C [Example 162] | 81
CCNCc1cncc(-c2ccc3[nH]nc(-c4ncc(C(=O)N5CCN6CCCC6C5)[nH]4)c3c2)c1C (stereo not shown) [Example 209] | 37
CCNCc1cncc(-c2ccc3[nH]nc(-c4ncc(C(=O)NCCCN5CCCC5=O)[nH]4)c3c2)c1C [Example 130] | 28
CCNCc1cncc(-c2ccc3[nH]nc(-c4ncc(C(=O)N5CCN(CCC#N)CC5)[nH]4)c3c2)c1C [Example 214, 3-(4-{[2-(5-{5-[(ethylamino)methyl]-4-methylpyridin-3-yl}-1H-indazol-3-yl)-1H-imidazol-5-yl]carbonyl}piperazin-1-yl)propanenitrile] | 40
CCNCc1cncc(-c2ccc3[nH]nc(-c4ncc(C(=O)N(CCO)Cc5ccccc5)[nH]4)c3c2)c1C [Example 124, N-benzyl-2-(5-{5-[(ethylamino)methyl]-4-methylpyridin-3-yl}-1H-indazol-3-yl)-N-(2-hydroxyethyl)-1H-imidazole-5-carboxamide] | 56
CCNCc1cncc(-c2ccc3[nH]nc(-c4ncc(C(=O)N5CCC(CNC(=O)C(F)(F)F)CC5)[nH]4)c3c2)c1C [Example 170, N-[(1-{[2-(5-{5-[(ethylamino)methyl]-4-methylpyridin-3yl}-1H-indazol-3-yl)-1H-imidazol-5-yl]carbonyl}piperidin-4-yl)methyl]-2,2,2-trifluoroacetamide] | 29
CCNCc1cncc(-c2ccc3[nH]nc(-c4ncc(C(=O)NCCc5ncn[nH]5)[nH]4)c3c2)c1C [Example 198, 2-(5-{5-[(ethylamino)methyl]-4-methylpyridin-3-yl}-1H-indazol-3-yl)-N-[2-(1H-1,2,4-triazol-5-yl)ethyl]-1H-imidazole-5-carboxamide] | 55
CCNCc1cncc(-c2ccc3[nH]nc(-c4ncc(C(=O)N(C)CCCN(C)C)[nH]4)c3c2)c1C [Example 122] | 30
CCNCc1cncc(-c2ccc3[nH]nc(-c4ncc(C(=O)N[C@H](c5ccccc5)[C@@H](O)c5ccccc5)[nH]4)c3c2)c1C [Example 105, 2-(5-{5-[(ethylamino)methyl]-4-methylpyridin-3-yl}-1H-indazol-3-yl)-N-[(1R,2S)-2-hydroxy-1,2-diphenylethyl]-1H-imidazole-5-carboxamide] | 74
CCNCc1cncc(-c2ccc3[nH]nc(-c4ncc(C(=O)N5C[C@@H]6[C@@H](N)[C@@H]6C5)[nH]4)c3c2)c1C [Example 193] | 52
CCNCc1cncc(-c2ccc3[nH]nc(-c4ncc(C(=O)NC(Cc5cc(C)no5)C5CC5)[nH]4)c3c2)c1C (stereo not shown) [Example 160, N-[1-cyclopropyl-2-(3-methylisoxazol-5-yl)ethyl]-2-(5-{5-[(ethylamino)methyl]-4-methylpyridin-3-yl}-1H-indazol-3-yl)-1H-imidazole-5-carboxamide] | 48
CCNCc1cncc(-c2ccc3[nH]nc(-c4ncc(C(=O)NC5CCC5)[nH]4)c3c2)c1C [Example 135, N-cyclobutyl-2-(5-{5-[(ethylamino)methyl]-4-methylpyridin-3-yl}-1H-indazol-3-yl)-1H-imidazole-5-carboxamide] | 67
CCNCc1cncc(-c2ccc3[nH]nc(-c4ncc(C(=O)NCC5CCCO5)[nH]4)c3c2)c1C (stereo not shown) [Example 110, 2-(5-{5-[(ethylamino)methyl]-4-methylpyridin-3-yl}-1H-indazol-3-yl)-N-(tetrahydrofuran-2-ylmethyl)-1H-imidazole-5-carboxamide] | 66
CCNCc1cncc(-c2ccc3[nH]nc(-c4ncc(C(=O)N5CCN(CCCN6CCOCC6)CC5)[nH]4)c3c2)c1C [Example 180] | 22
CCNCc1cncc(-c2ccc3[nH]nc(-c4ncc(C(=O)NC5CCCCC5)[nH]4)c3c2)c1C [Example 143, N-cyclohexyl-2-(5-{5-[(ethylamino)methyl]-4-methylpyridin-3-yl}-1H-indazol-3-yl)-1H-imidazole-5-carboxamide] | 78
CCNCc1cncc(-c2ccc3[nH]nc(-c4ncc(C(=O)N(C)CCN(C)C)[nH]4)c3c2)c1C [Example 156] | 25
CCNCc1cncc(-c2ccc3[nH]nc(-c4ncc(C(=O)N5CCC(O)(Cc6ccccc6)CC5)[nH]4)c3c2)c1C [Example 141, 4-benzyl-1-{[2-(5-{5-[(ethylamino)methyl]-4-methylpyridin-3-yl}-1H-indazol-3-yl)-1H-imidazol-5-yl]carbonyl}pipendin-4-ol] | 71
CCNCc1cncc(-c2ccc3[nH]nc(-c4ncc(C(=O)NC5Cc6ccccc6C5)[nH]4)c3c2)c1C [Example 158, N-(2,3-dihydro-1H-inden-2-yl)-2-(5-{5-[(ethylamino)methyl]-4-methylpyridin-3-yl}-1H-indazol-3-yl)-1H-imidazole-5-carboxamide] | 56
CCNCc1cncc(-c2ccc3[nH]nc(-c4ncc(C(=O)NCCC5CCN(Cc6ccccc6)CC5)[nH]4)c3c2)c1C [Example 192, N-[2-(1-benzylpiperidin-4-yl)ethyl]-2-(5-{5-[(ethylamino)methyl]-4-methylpyridin-3-yl}-1H-indazol-3-yl)-1H-imidazole-5-carboxamide] | 30
CCNCc1cncc(-c2ccc3[nH]nc(-c4ncc(C(=O)N5CCN(c6cnccn6)CC5)[nH]4)c3c2)c1C [Example 145] | 58

Continued, values first:

% Inhib @ 10 nM [%] | SMILES
56 | CCNCc1cncc(-c2ccc3[nH]nc(-c4ncc(C(=O)NCCc5c[nH]c6ccc(F)cc56)[nH]4)c3c2)c1C [Example 221, 2-(5-{5-[(ethylamino)methyl]-4-methylpyridin-3-yl}-1H-indazol-3-yl)-N-[2-(5-fluoro-1H-indol-3-yl)ethyl]-1H-imidazole-5-carboxamide]
34 | CCNCc1cncc(-c2ccc3[nH]nc(-c4ncc(C(=O)NCCC5CCOCC5)[nH]4)c3c2)c1C [Example 243, 2-(5-{5-[(ethylamino)methyl]-4-methylpyridin-3-yl}-1H-indazol-3-yl)-N-[2-(tetrahydro-2H-pyran-4-yl)ethyl]-1H-imidazole-5-carboxamide]
18 | CCNCc1cncc(-c2ccc3[nH]nc(-c4ncc(C(=O)N5CCC(O)(CN6CCOCC6)CC5)[nH]4)c3c2)c1C [Example 266, 1-{[2-(5-{5-[(ethylamino)methyl]-4-methylpyridin-3-yl}-1H-indazol-3-yl)-1H-imidazol-5-yl]carbonyl}-4-(morpholin-4-ylmethyl)piperidin-4-ol]
47 | CCNCc1cncc(-c2ccc3[nH]nc(-c4ncc(C(=O)NCC5COCCO5)[nH]4)c3c2)c1C (stereo not shown) [Example 237, N-(1,4-dioxan-2-ylmethyl)-2-(5-{5-[(ethyamino)methy]-4-methypyridin-3-yl}-1H-indazol-3-yl)-1H-imidazole-5-carboxamide]
74 | CCNCc1cncc(-c2ccc3[nH]nc(-c4ncc(C(=O)N5CCN(c6ccc(F)cc6F)CC5)[nH]4)c3c2)c1C [Example 230]
11 | CCNCc1cncc(-c2ccc3[nH]nc(-c4ncc(C(=O)N5CCC6(CC5)CC(N5CCCC5)CO6)[nH]4)c3c2)c1C (stereo not shown) [Example 254, ethyl{[4-methyl-5-(3-{5-[(3-pyrrolidin-1-yl-1-oxa-8-azaspiro[4.5]dec-8-yl)carbonyl]-1H-imidazol-2-yl}-1H-indazol-5-yl)pyridin-3-yl]methyl}amine]
74 | CCNCc1cncc(-c2ccc3[nH]nc(-c4ncc(C(=O)N5CCc6nc(C)sc6C5)[nH]4)c3c2)c1C [Example 234, ethyl{[4-methyl-5-(3-{5-[(2-methyl-6,7-dihydro[1,3]thiazolo[5,4-c]pyridin-5-(4H)-yl)carbonyl]-1H-imidazol-2-yl)-1H-indazol-5-yl)pyridin-3-yl]methyl}amine]
33 | CCNCc1cncc(-c2ccc3[nH]nc(-c4ncc(C(=O)N5CCN(CC6CCCO6)CC5)[nH]4)c3c2)c1C (stereo not shown) [Example 229, ethyl({4-methyl-5-[3-(5-{[4-(tetrahydrofuran-2-ylmethyl)piperazin-1-yl]carbonyl}-1H-imidazol-2-yl)-1H-indazol-5-yl]pyridin-3-yl}methyl)amine]
50 | CCNCc1cncc(-c2ccc3[nH]nc(-c4ncc(C(=O)N5CCN(Cc6ccccn6)CC5)[nH]4)c3c2)c1C [Example 228, ethyl({4-methyl-5-[3-(5-{[4-(pyridin-2-ylmethyl)piperazin-1-yl]carbonyl)-1H-imidazol-2-yl)-1H-indazol-5-yl]pyridin-3-yl}methyl)amine]
30 | CCNCc1cncc(-c2ccc3[nH]nc(-c4ncc(C(=O)N5CCCC(Cc6ncccn6)CC5)[nH]4)c3c2)c1C (stereo not shown) [Example 261, ethyl({4-methyl-5-[3-(5-{[4-(pyrimidin-2-ylmethyl)azepan-1-yl]carbonyl}-1H-imidazol-2-yl)-1H-indazol-5-yl]pyridin-3-yl}methyl)amine]
66 | CCNCc1cncc(-c2ccc3[nH]nc(-c4ncc(C(=O)N5CCC(c6cccnc6)C5)[nH]4)c3c2)c1C (stereo not shown) [Example 242, ethyl{[4-methyl-5-(3-{5-[(3-pyridin-3-ylpyrrolidin-1-yl)carbonyl]-1H-imidazol-2-yl}-1H-indazol-5-yl)pyridin-3-yl]methyl}amine]
